# From US11291201B2, “Solutions for increasing the stability and shelf life of an organ and tissue preservation solution” (Marizyme, Inc., priority 2013, dated 2022)
# Read-outs that look alike come from different tables or passages of the source.
# Experiments:
# [1] = 40° C., Solution B
# Text: (§1) The values of the exponents in the equation derived from the exponential fit are the first order rate constant k1 (in units of days^−1).
# [2] = Method: The real time stability studies at 5° C. have progressed for about one year thus far.
# as §1
structure (smiles),measurement,setting,value
N[C@@H](CCC(=O)N[C@@H](CS)C(=O)NCC(=O)O)C(=O)O [L-glutathione],time until product specification for L-glutathione approached its limit of expiration,[1],approximately 73 days
same,time until product specification for L-glutathione approached its limit of expiration,"[2]; 5° C., from first order fit of 12-15 month real time data",about 100 months
same,energy of activation for decomposition,[2]; corresponds to Q10 value of 2.94,19.0 kcal/mol
